Experimental data taken from ChEMBL document CHEMBL1201862, “PubChem BioAssay data set” (2004).
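How tested: cells in 96-well plates exposed to compound for 48 hours at five concentrations. The concentration for 50% growth inhibition is given as GI50.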 Active and inactive are the calls of the source. No stated cut-off is given here; in the data, active = GI50 up to about 1.1 µM and inactive = higher.

What was measured:
Experiment in all cases: NCI-60 cell line screen, 48 h
[1] = system: NCI-H522
[2] = system: UACC-62
[3] = system: OVCAR-8
[4] = system: M14
[5] = system: HCC 2998
[6] = system: HT-29
[7] = system: ACHN
[8] = system: MDA-MB-231
[9] = system: SK-MEL-5
[10] = system: HL-60
[11] = system: TK-10
[12] = system: MOLT-4
[13] = system: HOP-62
[14] = system: IGROV-1
[15] = system: SK-MEL-2
[16] = system: T47D
[17] = system: SR
[18] = system: SF-539
[19] = system: HCT-116
[20] = system: MDA-MB-435
[21] = system: COLO 205
[22] = system: CCRF-CEM
[23] = system: SF-268
[24] = system: OVCAR-4
[25] = system: CAKI-1
[26] = system: LOX IMVI
[27] = system: SN12C
[28] = system: SF-295
[29] = system: PC-3
[30] = system: K562
[31] = system: NCI/ADR-RES
[32] = system: Hs-578T
[33] = system: SK-MEL-28
[34] = system: SW-620
[35] = system: SNB-19
[36] = system: NCI-H460
[37] = system: DU-145
[38] = system: A549
[39] = system: NCI-H23
[40] = system: MDA-N
[41] = system: EKVX
[42] = system: MCF7
[43] = system: OVCAR-5
[44] = system: RXF 393
[45] = system: OVCAR-3
[46] = system: RPMI-8226
[47] = system: Malme-3M
[48] = system: A498
[49] = system: HCT-15
[50] = system: UO-31
[51] = system: U-251
[52] = system: KM12
[53] = system: UACC-257
[54] = system: SK-OV-3
[55] = system: BT-549
[56] = system: 786-0
[57] = system: SNB-75
[58] = system: NCI-H226

With `COC(=O)c1c(C)[n+]([O-])c2cc(Cl)c(Cl)cc2[n+]1[O-]` the GI50 [1] was 10.1 µM (inactive), the GI50 [2] was 15 µM (inactive) and the GI50 [3] was 16.6 µM (inactive). The GI50 [4] was 24.5 µM (inactive), the GI50 [5] was 16.1 µM (inactive) and the GI50 [6] was 18.7 µM (inactive). The GI50 [7] was 15.8 µM (inactive), the GI50 [8] was 19.4 µM (inactive) and the GI50 [9] was 8.71 µM (inactive). For the same compound, the GI50 [10] was 17.7 µM (inactive), the GI50 [11] was 11.3 µM (inactive) and the GI50 [12] was 12.6 µM (inactive). For the same compound, the GI50 [13] was 26 µM (inactive), the GI50 [14] was 4.39 µM (inactive) and the GI50 [15] was 19.4 µM (inactive). For the same compound, the GI50 [16] was 15.8 µM (inactive), the GI50 [17] was 6.17 µM (inactive) and the GI50 [18] was 18.9 µM (inactive). For the same compound, the GI50 [19] was 15.5 µM (inactive), the GI50 [20] was 18.6 µM (inactive) and the GI50 [21] was 12.2 µM (inactive). The GI50 [22] was 10.4 µM (inactive), the GI50 [23] was 23.4 µM (inactive) and the GI50 [24] was 19 µM (inactive). The GI50 [25] was 20.7 µM (inactive), the GI50 [26] was 8.65 µM (inactive) and the GI50 [27] was 18.2 µM (inactive). For the same compound, the GI50 [28] was 19.6 µM (inactive), the GI50 [29] was 22.4 µM (inactive) and the GI50 [30] was 32.2 µM (inactive). The GI50 [31] was 13.9 µM (inactive), the GI50 [32] was 21.9 µM (inactive) and the GI50 [33] was 27.4 µM (inactive). For the same compound, the GI50 [34] was 18.3 µM (inactive), the GI50 [35] was 27.4 µM (inactive) and the GI50 [36] was 5.38 µM (inactive). For the same compound, the GI50 [37] was 12.5 µM (inactive), the GI50 [38] was 8.07 µM (inactive) and the GI50 [39] was 30.1 µM (inactive). For the same compound, the GI50 [40] was 19.5 µM (inactive), the GI50 [41] was 19.5 µM (inactive) and the GI50 [42] was 14.5 µM (inactive). The GI50 [43] was 30.9 µM (inactive), the GI50 [44] was 32.9 µM (inactive) and the GI50 [45] was 16.6 µM (inactive). For the same compound, the GI50 [46] was 4.17 µM (inactive), the GI50 [47] was 8.45 µM (inactive) and the GI50 [48] was 10.2 µM (inactive). For the same compound, the GI50 [49] was 9.59 µM, the GI50 [50] was 15.8 µM (inactive) and the GI50 [51] was 16.5 µM (inactive). For the same compound, the GI50 [52] was 11.2 µM (inactive), the GI50 [53] was 17.1 µM (inactive) and the GI50 [54] was 12.9 µM (inactive). For the same compound, the GI50 [55] was 22.6 µM (inactive) and the GI50 [56] was 27.2 µM (inactive).
With `COC(=O)c1ccc(C)cc1CC1Cc2cc(C)ccc2C1=O` (stereo not given) the GI50 [1] was > 100 µM (inactive), the GI50 [2] was > 100 µM (inactive) and the GI50 [3] was > 100 µM (inactive). The GI50 [4] was > 100 µM (inactive), the GI50 [5] was > 100 µM (inactive) and the GI50 [6] was > 100 µM (inactive). For the same compound, the GI50 [57] was > 100 µM (inactive), the GI50 [7] was > 100 µM (inactive) and the GI50 [8] was > 100 µM (inactive). The GI50 [10] was > 100 µM (inactive), the GI50 [11] was > 100 µM (inactive) and the GI50 [12] was > 100 µM (inactive). The GI50 [13] was > 100 µM (inactive), the GI50 [14] was > 100 µM (inactive) and the GI50 [15] was > 100 µM (inactive). For the same compound, the GI50 [16] was > 100 µM (inactive), the GI50 [17] was > 100 µM (inactive) and the GI50 [58] was > 100 µM (inactive). For the same compound, the GI50 [18] was > 100 µM (inactive), the GI50 [19] was > 100 µM (inactive) and the GI50 [20] was > 100 µM (inactive). The GI50 [21] was > 100 µM (inactive), the GI50 [22] was > 100 µM (inactive) and the GI50 [23] was > 100 µM (inactive). The GI50 [24] was > 100 µM (inactive), the GI50 [25] was > 100 µM (inactive) and the GI50 [26] was > 100 µM (inactive). The GI50 [27] was > 100 µM (inactive), the GI50 [28] was > 100 µM (inactive) and the GI50 [29] was > 100 µM (inactive). The GI50 [30] was > 100 µM (inactive), the GI50 [31] was > 100 µM (inactive) and the GI50 [32] was > 100 µM (inactive). For the same compound, the GI50 [33] was > 100 µM (inactive), the GI50 [34] was > 100 µM (inactive) and the GI50 [35] was > 100 µM (inactive). The GI50 [36] was > 100 µM (inactive), the GI50 [37] was > 10 µM (inactive) and the GI50 [38] was > 100 µM (inactive). The GI50 [39] was > 100 µM (inactive), the GI50 [40] was > 100 µM (inactive) and the GI50 [41] was > 100 µM (inactive). For the same compound, the GI50 [42] was > 100 µM (inactive), the GI50 [43] was > 100 µM (inactive) and the GI50 [45] was > 100 µM (inactive). For the same compound, the GI50 [46] was > 100 µM (inactive), the GI50 [47] was > 100 µM (inactive) and the GI50 [48] was > 100 µM (inactive). For the same compound, the GI50 [49] was > 100 µM, the GI50 [50] was > 100 µM (inactive) and the GI50 [51] was > 100 µM (inactive). The GI50 [52] was > 100 µM (inactive), the GI50 [53] was > 100 µM (inactive) and the GI50 [54] was > 100 µM (inactive). For the same compound, the GI50 [55] was 94.2 µM (inactive) and the GI50 [56] was > 100 µM (inactive).
In the case of `Cc1ncc([N+](=O)[O-])n1CCNC(=O)Cn1ccnc1[N+](=O)[O-]`, the GI50 [1] is reported as > 100 µM (inactive), the GI50 [2] is reported as > 100 µM (inactive) and the GI50 [3] is reported as > 100 µM (inactive). The GI50 [4] was > 100 µM (inactive), the GI50 [5] was > 100 µM (inactive) and the GI50 [6] was > 100 µM (inactive). For the same compound, the GI50 [57] was > 100 µM (inactive), the GI50 [7] was > 100 µM (inactive) and the GI50 [8] was > 100 µM (inactive). For the same compound, the GI50 [9] was > 100 µM (inactive), the GI50 [10] was > 100 µM (inactive) and the GI50 [11] was > 100 µM (inactive). The GI50 [12] was > 100 µM (inactive), the GI50 [13] was > 100 µM (inactive) and the GI50 [14] was > 100 µM (inactive). The GI50 [15] was > 100 µM (inactive), the GI50 [16] was > 100 µM (inactive) and the GI50 [17] was > 100 µM (inactive). For the same compound, the GI50 [58] was > 100 µM (inactive), the GI50 [18] was > 100 µM (inactive) and the GI50 [19] was > 100 µM (inactive). For the same compound, the GI50 [20] was > 100 µM (inactive), the GI50 [21] was > 100 µM (inactive) and the GI50 [22] was > 100 µM (inactive). The GI50 [23] was > 100 µM (inactive), the GI50 [25] was > 100 µM (inactive) and the GI50 [27] was > 100 µM (inactive). The GI50 [28] was > 100 µM (inactive), the GI50 [29] was > 100 µM (inactive) and the GI50 [30] was > 100 µM (inactive). For the same compound, the GI50 [31] was > 100 µM (inactive), the GI50 [32] was > 100 µM (inactive) and the GI50 [33] was > 100 µM (inactive). The GI50 [34] was > 100 µM (inactive), the GI50 [35] was > 100 µM (inactive) and the GI50 [36] was > 100 µM (inactive). For the same compound, the GI50 [37] was > 100 µM (inactive), the GI50 [38] was > 100 µM (inactive) and the GI50 [39] was > 100 µM (inactive). For the same compound, the GI50 [40] was > 100 µM (inactive), the GI50 [42] was > 100 µM (inactive) and the GI50 [43] was > 100 µM (inactive). For the same compound, the GI50 [45] was > 100 µM (inactive), the GI50 [47] was > 100 µM (inactive) and the GI50 [48] was > 100 µM (inactive). The GI50 [49] was > 100 µM, the GI50 [50] was > 100 µM (inactive) and the GI50 [51] was > 100 µM (inactive). The GI50 [52] was > 100 µM (inactive), the GI50 [53] was > 100 µM (inactive) and the GI50 [54] was > 100 µM (inactive). For the same compound, the GI50 [55] was > 100 µM (inactive) and the GI50 [56] was > 100 µM (inactive).
